Laboratory results taken from ChEMBL document CHEMBL1909046, “DrugMatrix in vitro pharmacology data”.

What was measured:
Thromboxane-A synthase = target: T1, Thromboxane-A synthase (Homo sapiens, UniProt P24557); test: biochemical; format: tissue-based, Platelet; details: platelet;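 note: enzyme inhibition assay with PGH2 supplied as substrate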
T1 sequence (P24557 whole entry): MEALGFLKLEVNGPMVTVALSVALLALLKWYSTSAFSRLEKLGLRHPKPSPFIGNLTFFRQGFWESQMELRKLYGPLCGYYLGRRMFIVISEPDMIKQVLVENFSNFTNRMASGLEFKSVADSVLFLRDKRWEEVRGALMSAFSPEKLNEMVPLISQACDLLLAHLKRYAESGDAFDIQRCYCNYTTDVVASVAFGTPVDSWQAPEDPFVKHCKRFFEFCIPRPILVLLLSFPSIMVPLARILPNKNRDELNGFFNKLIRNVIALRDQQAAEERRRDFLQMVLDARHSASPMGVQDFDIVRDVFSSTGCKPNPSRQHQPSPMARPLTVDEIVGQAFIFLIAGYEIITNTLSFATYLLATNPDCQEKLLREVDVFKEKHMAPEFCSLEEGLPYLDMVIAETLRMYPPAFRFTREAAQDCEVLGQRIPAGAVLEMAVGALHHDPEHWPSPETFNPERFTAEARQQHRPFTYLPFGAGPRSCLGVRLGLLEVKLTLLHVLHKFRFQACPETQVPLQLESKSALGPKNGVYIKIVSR

Glycine receptor = Glycine receptor (Rattus norvegicus, UniProt P22771+P24524+P07727+P20781); format: cell membranes, Wistar, Spinal cord, Membrane
[1] = target: T2, 3-hydroxy-3-methylglutaryl-coenzyme A reductase (Homo sapiens, UniProt P04035); design: species or system Escherichia coli;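 note: enzyme inhibition assay of HMG-CoA reductase using radiolabeled [14C]HMG-CoA as substrate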
T2 sequence (P04035 whole entry): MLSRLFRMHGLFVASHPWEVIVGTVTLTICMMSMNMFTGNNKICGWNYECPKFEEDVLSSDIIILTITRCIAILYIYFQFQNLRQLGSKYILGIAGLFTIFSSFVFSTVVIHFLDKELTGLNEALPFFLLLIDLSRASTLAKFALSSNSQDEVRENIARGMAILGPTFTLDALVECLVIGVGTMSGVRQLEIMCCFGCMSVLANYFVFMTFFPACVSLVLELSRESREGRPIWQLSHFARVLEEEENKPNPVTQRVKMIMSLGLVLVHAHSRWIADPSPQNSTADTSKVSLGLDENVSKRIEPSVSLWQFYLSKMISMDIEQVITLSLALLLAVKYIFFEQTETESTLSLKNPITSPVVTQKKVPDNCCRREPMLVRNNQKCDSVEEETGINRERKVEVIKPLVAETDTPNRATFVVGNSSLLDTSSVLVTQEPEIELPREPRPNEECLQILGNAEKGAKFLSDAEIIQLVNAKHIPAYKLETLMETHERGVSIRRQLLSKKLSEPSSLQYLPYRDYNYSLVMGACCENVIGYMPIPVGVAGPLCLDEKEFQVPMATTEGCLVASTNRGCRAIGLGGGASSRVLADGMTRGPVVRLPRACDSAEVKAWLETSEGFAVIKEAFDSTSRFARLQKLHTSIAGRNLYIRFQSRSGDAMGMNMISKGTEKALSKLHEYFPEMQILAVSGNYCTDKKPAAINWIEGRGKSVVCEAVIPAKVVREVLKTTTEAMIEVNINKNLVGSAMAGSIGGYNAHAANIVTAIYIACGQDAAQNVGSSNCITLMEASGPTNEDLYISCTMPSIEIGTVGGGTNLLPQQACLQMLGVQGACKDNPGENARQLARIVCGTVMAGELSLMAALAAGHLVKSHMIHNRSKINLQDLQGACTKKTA

Leukotriene C4 synthase = target: T3, Leukotriene C4 synthase (Cavia porcellus, UniProt A6XA80); format: tissue-based, Lung;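 note: enzyme inhibition assay of leukotriene C4 synthase, using LTA4 as the substrate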
T3 sequence (A6XA80 whole entry): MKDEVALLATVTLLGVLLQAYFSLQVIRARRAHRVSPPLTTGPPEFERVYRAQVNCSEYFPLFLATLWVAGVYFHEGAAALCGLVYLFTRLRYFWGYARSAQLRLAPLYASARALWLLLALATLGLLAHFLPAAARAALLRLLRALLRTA

[2] = target: T4, Neuropeptide Y receptor type 1 (Homo sapiens, UniProt P25929); format: cell membranes, Membrane; details: sk-n-mc
T4 sequence (P25929 whole entry): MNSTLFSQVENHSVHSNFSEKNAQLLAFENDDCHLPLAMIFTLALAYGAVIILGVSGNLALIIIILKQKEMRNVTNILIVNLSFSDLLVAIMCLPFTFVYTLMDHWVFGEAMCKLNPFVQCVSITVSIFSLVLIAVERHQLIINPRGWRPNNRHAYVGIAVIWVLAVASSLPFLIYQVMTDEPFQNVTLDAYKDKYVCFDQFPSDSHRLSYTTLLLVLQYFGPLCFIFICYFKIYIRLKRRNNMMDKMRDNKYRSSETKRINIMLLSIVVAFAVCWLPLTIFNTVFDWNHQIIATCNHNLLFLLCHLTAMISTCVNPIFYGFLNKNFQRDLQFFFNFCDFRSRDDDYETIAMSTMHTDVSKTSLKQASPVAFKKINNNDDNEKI

Cytochrome P450 1A2 = target: T5, Cytochrome P450 1A2 (Homo sapiens, UniProt P05177); details: bti-tn-5b1-4
T5 sequence (P05177 whole entry): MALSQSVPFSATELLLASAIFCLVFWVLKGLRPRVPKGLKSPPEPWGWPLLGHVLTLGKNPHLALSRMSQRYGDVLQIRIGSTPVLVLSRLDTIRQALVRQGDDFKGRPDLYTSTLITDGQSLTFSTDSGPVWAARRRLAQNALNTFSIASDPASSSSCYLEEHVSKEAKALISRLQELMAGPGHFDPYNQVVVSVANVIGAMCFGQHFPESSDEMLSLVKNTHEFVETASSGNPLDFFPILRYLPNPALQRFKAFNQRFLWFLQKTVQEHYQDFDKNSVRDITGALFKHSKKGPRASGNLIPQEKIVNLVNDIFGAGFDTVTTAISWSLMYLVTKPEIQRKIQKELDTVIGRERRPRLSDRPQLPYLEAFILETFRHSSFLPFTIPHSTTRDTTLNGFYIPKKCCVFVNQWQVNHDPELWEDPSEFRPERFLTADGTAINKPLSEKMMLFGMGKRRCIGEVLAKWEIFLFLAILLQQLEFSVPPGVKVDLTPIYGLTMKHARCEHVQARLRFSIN
Note: in other assays of this panel Not Active means under 50% inhibition at 10 µM.

CN(C)c1ccc(C(=C2C=CC(=[N+](C)C)C=C2)c2ccc(N(C)C)cc2)cc1.[Cl-] [GENTIAN VIOLET]
Not Active: IC50 (Thromboxane-A synthase) | IC50 (Glycine receptor) | IC50 [1] | IC50 (Leukotriene C4 synthase) | IC50 [2] | IC50 (Cytochrome P450 1A2) | Ki (Cytochrome P450 1A2)

Cc1ccc(S(=O)(=O)NC(=O)NN2CC3CCCC3C2)cc1 (stereo unspecified) [GLICLAZIDE]
Not Active: IC50 (Thromboxane-A synthase) | IC50 (Glycine receptor) | IC50 [1] | IC50 (Leukotriene C4 synthase) | IC50 [2] | IC50 (Cytochrome P450 1A2) | Ki (Cytochrome P450 1A2)

CC(C)Cc1ccc(C(C)C(=O)O)cc1 (stereo unspecified) [IBUPROFEN]
Not Active: IC50 (Thromboxane-A synthase) | IC50 (Glycine receptor) | IC50 [1] | IC50 (Leukotriene C4 synthase) | IC50 [2] | IC50 (Cytochrome P450 1A2) | Ki (Cytochrome P450 1A2)

COc1ccc2c(c1)c(CC(=O)O)c(C)n2C(=O)c1ccc(Cl)cc1 [INDOMETHACIN]
Not Active: IC50 (Thromboxane-A synthase) | IC50 (Glycine receptor) | IC50 [1] | IC50 (Leukotriene C4 synthase) | IC50 [2] | IC50 (Cytochrome P450 1A2) | Ki (Cytochrome P450 1A2)

CCc1c2c(nc3ccc(OC(=O)N4CCC(N5CCCCC5)CC4)cc13)-c1cc3c(c(=O)n1C2)COC(=O)[C@]3(O)CC [IRINOTECAN]
Not Active: IC50 (Thromboxane-A synthase) | IC50 (Glycine receptor) | IC50 [1] | IC50 (Leukotriene C4 synthase) | IC50 [2] | IC50 (Cytochrome P450 1A2) | Ki (Cytochrome P450 1A2)

CC(C(=O)O)c1cccc(C(=O)c2ccccc2)c1 (stereo unspecified) [KETOPROFEN]
Not Active: IC50 (Thromboxane-A synthase) | IC50 (Glycine receptor) | IC50 [1] | IC50 (Leukotriene C4 synthase) | IC50 [2] | IC50 (Cytochrome P450 1A2) | Ki (Cytochrome P450 1A2)

Nc1ccn([C@@H]2CS[C@H](CO)O2)c(=O)n1 [LAMIVUDINE]
Not Active: IC50 (Thromboxane-A synthase) | IC50 (Glycine receptor) | IC50 [1] | IC50 (Leukotriene C4 synthase) | IC50 [2] | IC50 (Cytochrome P450 1A2) | Ki (Cytochrome P450 1A2)

O=S(=O)([O-])CCS.[Na+] [MESNA]
Not Active: IC50 (Thromboxane-A synthase) | IC50 (Glycine receptor) | IC50 [1] | IC50 (Leukotriene C4 synthase) | IC50 [2] | IC50 (Cytochrome P450 1A2) | Ki (Cytochrome P450 1A2)

C#C[C@]1(O)CC[C@H]2[C@@H]3CCc4cc(OC)ccc4[C@H]3CC[C@@]21C [MESTRANOL]
Not Active: IC50 (Thromboxane-A synthase) | IC50 (Glycine receptor) | IC50 [1] | IC50 (Leukotriene C4 synthase) | IC50 [2] | IC50 (Cytochrome P450 1A2) | Ki (Cytochrome P450 1A2)

Cc1ncc([N+](=O)[O-])n1CCO [METRONIDAZOLE]
Not Active: IC50 (Thromboxane-A synthase) | IC50 (Glycine receptor) | IC50 [1] | IC50 (Leukotriene C4 synthase) | IC50 [2] | IC50 (Cytochrome P450 1A2) | Ki (Cytochrome P450 1A2)

CC(C)(C(=O)c1cccnc1)c1cccnc1 [METYRAPONE]
Not Active: IC50 (Thromboxane-A synthase) | IC50 (Glycine receptor) | IC50 [1] | IC50 (Leukotriene C4 synthase) | IC50 [2] | IC50 (Cytochrome P450 1A2) | Ki (Cytochrome P450 1A2)

Oc1ccc(OCc2ccccc2)cc1 [MONOBENZONE]
Not Active: IC50 (Thromboxane-A synthase) | IC50 (Glycine receptor) | IC50 [1] | IC50 (Leukotriene C4 synthase) | IC50 [2] | IC50 (Cytochrome P450 1A2) | Ki (Cytochrome P450 1A2)

CC(C)(Oc1ccc(C2CCCc3ccccc32)cc1)C(=O)O (stereo unspecified) [NAFENOPIN]
Not Active: IC50 (Thromboxane-A synthase) | IC50 (Glycine receptor) | IC50 [1] | IC50 (Leukotriene C4 synthase) | IC50 [2] | IC50 (Cytochrome P450 1A2) | Ki (Cytochrome P450 1A2)

CC(C)[C@H]1CC[C@H](C(=O)N[C@H](Cc2ccccc2)C(=O)O)CC1 [NATEGLINIDE]
Not Active: IC50 (Thromboxane-A synthase) | IC50 (Glycine receptor) | IC50 [1] | IC50 (Leukotriene C4 synthase) | IC50 [2] | IC50 (Cytochrome P450 1A2) | Ki (Cytochrome P450 1A2)

CCN[C@@H]1C[C@H](N)[C@@H](O[C@H]2OC(CN)=CC[C@H]2N)[C@H](O)[C@H]1O[C@H]1OC[C@](C)(O)[C@H](NC)[C@H]1O [NETILMICIN]
Not Active: IC50 (Thromboxane-A synthase) | IC50 (Glycine receptor) | IC50 [1] | IC50 (Leukotriene C4 synthase) | IC50 [2] | IC50 (Cytochrome P450 1A2) | Ki (Cytochrome P450 1A2)

CCOC(=O)C1=C(C)NC(C)=C(C(=O)OC)C1c1cccc([N+](=O)[O-])c1 (stereo unspecified) [NITRENDIPINE]
Not Active: IC50 (Thromboxane-A synthase) | IC50 (Glycine receptor) | IC50 [1] | IC50 (Leukotriene C4 synthase) | IC50 [2] | IC50 (Cytochrome P450 1A2) | Ki (Cytochrome P450 1A2)

C#C[C@]1(OC(C)=O)CC[C@H]2[C@@H]3CCC4=CC(=O)CC[C@@H]4[C@H]3CC[C@@]21C [NORETHINDRONE ACETATE]
Not Active: IC50 (Thromboxane-A synthase) | IC50 (Glycine receptor) | IC50 [1] | IC50 (Leukotriene C4 synthase) | IC50 [2] | IC50 (Cytochrome P450 1A2) | Ki (Cytochrome P450 1A2)

COc1ccc2[nH]c([S+]([O-])Cc3ncc(C)c(OC)c3C)nc2c1 (stereo unspecified) [OMEPRAZOLE]
Not Active: IC50 (Thromboxane-A synthase) | IC50 (Glycine receptor) | IC50 [1] | IC50 (Leukotriene C4 synthase) | IC50 [2] | IC50 (Cytochrome P450 1A2) | Ki (Cytochrome P450 1A2)

Cc1nccn1CC1CCc2c(c3ccccc3n2C)C1=O (stereo unspecified) [ONDANSETRON]
Not Active: IC50 (Thromboxane-A synthase) | IC50 (Glycine receptor) | IC50 [1] | IC50 (Leukotriene C4 synthase) | IC50 [2] | IC50 (Cytochrome P450 1A2) | Ki (Cytochrome P450 1A2)

CCCCOc1ccc(OCCCN2CCOCC2)cc1 [PRAMOXINE]
Not Active: IC50 (Thromboxane-A synthase) | IC50 (Glycine receptor) | IC50 [1] | IC50 (Leukotriene C4 synthase) | IC50 [2] | IC50 (Cytochrome P450 1A2) | Ki (Cytochrome P450 1A2)

O=C(C1CCCCC1)N1CC(=O)N2CCc3ccccc3C2C1 (stereo unspecified) [PRAZIQUANTEL]
Not Active: IC50 (Thromboxane-A synthase) | IC50 (Glycine receptor) | IC50 [1] | IC50 (Leukotriene C4 synthase) | IC50 [2] | IC50 (Cytochrome P450 1A2) | Ki (Cytochrome P450 1A2)

CCN(CC)CCOC(=O)c1ccc(N)cc1 [PROCAINE]
Not Active: IC50 (Thromboxane-A synthase) | IC50 (Glycine receptor) | IC50 [1] | IC50 (Leukotriene C4 synthase) | IC50 [2] | IC50 (Cytochrome P450 1A2) | Ki (Cytochrome P450 1A2)

CCCN(CCC)C(=O)C(CCC(=O)O)NC(=O)c1ccccc1 (stereo unspecified) [PROGLUMIDE]
Not Active: IC50 (Thromboxane-A synthase) | IC50 (Glycine receptor) | IC50 [1] | IC50 (Leukotriene C4 synthase) | IC50 [2] | IC50 (Cytochrome P450 1A2) | Ki (Cytochrome P450 1A2)
